Measured values reported in US20110105554A1, “MEANS FOR TREATING MYOSIN-RELATED DISEASES” (KINARIS BIOMEDICALS GMBH, priority 2007, published 2011).

Experiments:
[1] = test system: heavy meromyosin (HMM) prepared from rabbit skeletal muscle myosin-2; test: Inhibitor screening: colorimetric high-throughput myosin ATPase assay with HMM; type: biochemical
Text: Preferably, said activity is the capability of said myosin (i) to bind actin; (ii) to convert ATP into ADP and Pi; and/or (iii) to generate force and/or movement. Exemplary or preferred binding assays are described herein above and can be applied for determining whether myosin binds actin, preferably F-actin, and/or nucleotides. Exemplary or preferred activity assays are described herein below and can be applied for determining whether myosin is capable of converting ATP into ADP and Pi or of force production and generation of movement. An exemplary assay for ATPase activity is based on the detection of free phosphate formed upon cleavage of ATP, wherein the detection is effected using malachite green. For an exemplary workflow, see FIG. 17.
FIG. 6: Histogram showing the relative myosin-2 ATPase activity measured in the absence (+control) and presence of halogenated alkaloids. Blebbistatin und BTS were used as controls. Compounds of the HET-series, BTS and blebbistatin were used at 25 μM final concentration. HET-43 is PBP (pentabromopseudilin). […]
Inhibitor screening. […] The amount of dye formed after 20 min color development at room temperature was determined with a Tecan Infinite™ microplate reader (Cralisheim, Germany).

[2] = test system: skinned muscle fibre preparations from rabbit psoas muscle; test: Isometric force measurement on skinned muscle fibres
Text: To test the effect of PBP on fully assembled myofilament arrays, we examined the contractile properties of skinned muscle fibre preparations from rabbit psoas muscle. Pentabromopseudilin leads to a more than 4-fold reduction in isometric force development of skinned muscle fibre preparations from rabbit psoas muscle. The Ki is in the same range as that determined for actomyosin ATPase activity. (FIG. 12)

[3] = target: chicken myosin-5a (Gallus gallus, UniProt Q02440); test: In vitro motility assay (actin filament sliding), myosin-5a; type: biochemical; settings: 10 μM PBP
Method: (b) Inhibition of chicken myosin-5a by PBP in the in vitro motility assay. The histograms show the average sliding velocity of Rh/Ph-labeled actin filaments in the absence and presence of 10 μM PBP. Myosin-5a moves actin filaments with an average velocity of 0.6 μm/s±0.05 (dark bars); addition of 10 μM PBP into the same flow cell decreases the average sliding velocity to 0.013 μm/s±0.002 (light grey bars).
The extent and order of isoform-specific differences in the potency of the inhibitor were additionally confirmed by the results of in vitro motility assays). […] (FIG. 11a) Myosin-5a moves actin filaments with an average velocity of 0.6 μm/s±0.05 (dark bars); addition of 10 μM PBP into the same flow cell lead to a 46-fold reduction of the average sliding velocity to 0.013 μm/s±0.002 (light grey bars).
Direct functional Assays. Actin-sliding motility was performed at 25° C. using an Olympus IX81 inverted fluorescence microscope. Experimental flow cells were constructed using bovine serum albumin (0.5 mg/ml in assay buffer)-coated glass slides and nitrocellulose-coated coverslips. Myosins were actin affinity-purified immediately before use, to remove rigor heads^20. […] Average sliding velocity was determined from the Gaussian distribution of automatically tracked actin filaments using DiaTrack 3.0 and Origin 7.0.

[4] = test system: mammalian myosin-5a
Text: In this context, preferred selectivity means a more than 20-fold smaller IC50 value compared to fast skeletal muscle myosin-2 and other references myosins.

[5] = Development toxicity testing on medaka embryos; settings: medaka, in vivo
Method: (a) KIN-43 in concentrations between 0.5 μM and 100 μM were incubated for 48 h with 20 medaka embryos per concentration. […] (b) Light microscopy image of embryo after 48 h in the absence of KIN-43.
We are using a library of common organic molecules and functional groups and are applying an empirical force field description of the nonbonding interactions between a ligand and the binding site in order to build up de novo compounds with spatial and electrostatic properties complementary to the allosteric binding site.

Chain of chicken myosin-5a (Q02440 1-764): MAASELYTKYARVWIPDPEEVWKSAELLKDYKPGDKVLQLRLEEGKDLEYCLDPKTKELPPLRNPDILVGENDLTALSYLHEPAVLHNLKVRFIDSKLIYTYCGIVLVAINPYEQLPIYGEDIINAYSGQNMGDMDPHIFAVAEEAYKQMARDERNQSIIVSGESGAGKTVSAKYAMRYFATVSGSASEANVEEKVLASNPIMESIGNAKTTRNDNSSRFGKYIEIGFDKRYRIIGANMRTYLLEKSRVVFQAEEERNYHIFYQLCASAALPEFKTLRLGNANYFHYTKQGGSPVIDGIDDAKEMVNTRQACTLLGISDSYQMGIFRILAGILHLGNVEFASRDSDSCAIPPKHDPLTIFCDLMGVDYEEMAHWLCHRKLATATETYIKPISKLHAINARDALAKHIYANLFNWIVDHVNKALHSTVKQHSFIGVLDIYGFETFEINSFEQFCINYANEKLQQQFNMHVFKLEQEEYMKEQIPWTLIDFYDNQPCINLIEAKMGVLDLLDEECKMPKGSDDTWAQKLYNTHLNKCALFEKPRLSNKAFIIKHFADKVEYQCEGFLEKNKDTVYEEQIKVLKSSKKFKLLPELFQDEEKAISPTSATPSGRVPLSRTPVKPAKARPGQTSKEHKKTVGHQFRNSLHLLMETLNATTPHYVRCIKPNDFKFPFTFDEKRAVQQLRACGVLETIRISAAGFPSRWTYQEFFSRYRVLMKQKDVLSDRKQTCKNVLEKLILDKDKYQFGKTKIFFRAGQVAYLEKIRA

Oc1c(Br)cc(Br)cc1-c1[nH]c(Br)c(Br)c1Br [KIN-43]
inhibition of HMM ATPase activity [1]: very potent inhibitor
fold reduction in isometric force development [2]: more than 4 fold
fold reduction of the average sliding velocity [3]: 46 fold
average sliding velocity of actin filaments ([3]; 0.6 μm/s without): 0.013 μm/s
preferred selectivity: fold smaller IC50 compared to fast skeletal muscle myosin-2 and other reference myosins [4]: more than 20 fold
LC50 at 48 h [5]: 3000 nM
